The test system of test [1] is retinol oxidation by SDRs. The experiment in a line: Retinoid measurements in heart tissue (LC-MS/MS). It counts as in vivo, mouse. The settings on record: TAC hearts, WT and Sirt3Ko mice. An excerpt: Retinoid measurements. Analysis of all-trans-retinyl ester palmitate (RP), all-trans,-retinol (ROL) was done in collaboration with Dr. Nina Isoherranen laboratory using previously established methods (Czuba et al., 2020). RP, ROL were purchased from Toronto Research Chemicals (North York, ON), and retinyl ester palmitate-d4 (RP-d4) and all-trans-retinol-d6 (ROLd6) were purchased from Cambridge Isotopes (Andover, MA). Blank human serum (DC MASS SPECT GOLD MSG4000) for standard curve and quality control matrix was purchased from Golden West Diagnostics (Temecula, CA). Solvents for liquid chromatography tandem mass spectrometry (LC-MS/MS) were Optima LC-MS grade and purchased from Fisher Scientific (Pittsburgh, PA). […]
RP and ROL concentrations were determined on an AB Sciex 5500 QTRAP mass spectrometer (AB Sciex, Foster City), coupled with an Agilent 1290 UHPLC (Agilent, Santa Clara, CA) using a Ascentis Express RP-amide column (2.1×150 mm, […]) and guard column (2.1×5 mm, 2.7 μm). […]
RP and ROL were detected in positive ion mode atmospheric pressure chemical ionization (APCI) mode using selected reaction monitoring (SRM). […] The CE was 25 V, DP was 60 V, entrance potential was 10 V, and collision exit potential was 10 V. Peaks were integrated and quantified using MultiQuant 2.1.1 (AB Sciex, Foster City, CA). […]

Test [2] relates to isoproterenol (ISO) induced heart failure in WT and Sirt3Ko mice. The experiment in a line: Isoproterenol (ISO) minipump induced heart failure, echocardiography and HW/TL. The settings on record: 14 days of ISO, NR 500 mg/kg body weight IP daily. It counts as in vivo, mouse. How it is done: Minipump implantation. Pathologic hypertrophy was induced by treating male (3-4 months old) Sirt3ko and WT mice with isoproterenol (ISO) or vehicle for 14 days. Mice with and without GW6471(4.5 mg/kg/day) were treated with NR (500 mg/kg body weight IP daily) or vehicle starting at day one after mini-pump insertion. Briefly, an incision was made in the skin between the shoulder blades. A deep subcutaneous pocket was made caudal to the incision using blunt dissection. The sterile minipump (Alzet #2002) was inserted into the pocket, and the incision was closed with wound clips. Isoproterenol (30 mg/kg/day) was delivered by osmotic minipump for 14 days. Minipumps carrying saline were used as a control.
Transthoracic Echocardiography. Echocardiography of hearts was performed at indicated time after surgery using the VEVO 2100 high-frequency, high-resolution digital imaging system (VisualSonics) equipped with a MS400 Microscan Transducer on anesthetized mice (0.5%-2% isoflurane in 95% oxygen). Measurements were made when heart rate was >450 bpm. Cardiac function and geometry measurements were measured in parasternal short axis view. M-mode images were used for analysis and calculated by the average of at least three cardiac cycles and carried out in a blind fashion. Hearts were harvested at 12-week post-surgery for subsequent experiments and biochemical assays.
Organ weight and histological assessment. Hearts from mice were harvested, rinsed briefly in 1×PBS, blotted dry, and weighed. Lungs from the same mice were harvested, weighed, then dried at 56 C. After 72 hours the lungs were weighed again. Heart weight (HW) and Lung weight (LW) was normalized to tibia length (TL) to assess changes in hypertrophic growth and lung edema, respectively. For histology, hearts were perfusion fixed with 10% neutral buffered formalin. Longitudinal sections of hearts were stained with Masson's Trichrome for assessment of fibrosis by the University of Washington Histology and Imaging Core.

One compound from patent US20240216412A1, “OXIDIZED NICOTINAMIDE ADENINE DINUCLEOTIDE (NAD+) PRECURSOR TREATMENT FOR HEART FAILURE ALLEVIATION INDEPENDENT OF MITOCHONDRIAL PROTEIN DEACETYLATION” (University of Washington, priority 2022, published 2024) can be followed below.

Structures are written as SMILES.

As to `NC(=O)c1ccc[n+]([C@@H]2O[C@H](CO)[C@@H](O)[C@H]2O)c1` [NR, Nicotinamide riboside chloride], in test [1], the “Retinol and retinylpalmitate accumulation (bottleneck in SDR reactions)” value is recorded as “removed the “bottleneck””. In test [2], the Cardiac hypertrophy entry is on record as “partially reduced” and the FS % entry is recorded as “increased”.
